Counter-ions that a name gives are not always drawn.
Key:
[1] = system: oxidative phosphorylation in mitochondria from rat liver homogenates and Jensen sarcoma cells; conditions: cited from earlier work
[2] = system: solid tumour fresh human tumour specimens (PHTC); conditions: 0.66 µM; n=22; 4320 min
CEM/S = test: cells; type: cell-based, human; conditions: CEM/S; 72 hours incubation; read-out: IC50
ACHN = test: cells; type: cell-based, human; conditions: ACHN, primary resistant renal carcinoma; 72 hours incubation; read-out: IC50
[3] = system: panel of ten human tumour cell lines; test: cells; type: cell-based; conditions: mean over the ten cell lines; read-out: MEAN IC50
H69 = test: cells; type: cell-based, human; conditions: H69, small cell lung cancer; 72 hours incubation; read-out: IC50
CEM/R = test: cells; type: cell-based, human; conditions: CEM/R; 72 hours incubation; read-out: IC50
8226S = test: cells; type: cell-based, human; conditions: 8226S, myeloma; 72 hours incubation; read-out: IC50
[4] = system: Hematological tumours (PHTC); test: FMCA in PHTC cultures, Table 4, hematological; conditions: 4 µM; n=7-11; 4320 min
Corpus cancer = test: Cytotoxic activity in different tumour models; type: cell-based, human; conditions: Number 4
Breast cancer = test: Cytotoxic activity in different tumour models; type: cell-based, human; conditions: Number 4
Prostate cancer = test: Cytotoxic activity in different tumour models; type: cell-based, human; conditions: Number 1
[5] = system: PHTC samples from 9 patients with hematological and 18 patients with solid tumours; test: Circumvention of melphalan resistance: FMCA classification of PHTC samples as LDR, IDR, EDR; type: cell-based, human; conditions: tested at 4 µM
8226Dox40 = test: cells; type: cell-based, human; conditions: 8226Dox40, doxorubicin resistance; 72 hours incubation; read-out: IC50
[6] = system: fresh human tumour specimens; test: FMCA cytotoxic activity in 27 fresh human tumour specimens (Figure 2); type: cell-based; conditions: 27 human tumour samples, 14 hematological and 13 solid, comparative statement
[7] = system: hematological fresh human tumour specimens (PHTC); conditions: 0.66 µM; n=42; 4320 min
Solid tumours (PHTC) = test: FMCA in PHTC cultures, Table 4, solid; conditions: 4 µM; n=12-20; 4320 min
RPMI 8322 melanoma cells = conditions: compared with the other peptides of PTC; cited from earlier work
U937vcr = test: cells; type: cell-based, human; conditions: U937vcr, vincristine resistance; 72 hours incubation; read-out: IC50
8226LR5 = test: cells; type: cell-based, human; conditions: 8226LR5, melphalan resistance; 72 hours incubation; read-out: IC50
U937gtb = test: cells; type: cell-based, human; conditions: U937gtb, lymphoma; 72 hours incubation; read-out: IC50
NSC Lung cancer = test: Cytotoxic activity in different tumour models; type: cell-based, human; conditions: Number 8
Adeno-carcinoma = test: Cytotoxic activity in different tumour models; type: cell-based, human; conditions: Number 5
Ovarian carcinoma = test: Cytotoxic activity in different tumour models; type: cell-based, human; conditions: Number 8
[8] = system: primary cultures of human tumor cells from patients (PHTC), Total; test: FMCA in PHTC cultures, Table 4, total; conditions: 4 µM; n=19-31; 4320 min
H69AR = test: cells; type: cell-based, human; conditions: H69AR, doxorubicin resistance; 72 hours incubation; read-out: IC50
sarcoma 45 = conditions: rat, in vivo; cited from earlier work

CC(C)[C@H](NC(=O)[C@@H](N)Cc1ccc(N(CCCl)CCCl)cc1)C(=O)O [L-melphalanyl-L-valine]
oxidative phosphorylation [1]: disrupted oxidative phosphorylation

CCOC(=O)[C@H](Cc1ccc(F)cc1)NC(=O)[C@H](Cc1cccc(N(CCCl)CCCl)c1)NC(=O)[C@@H]1CCCN1 [Example P2, L-prolyl-m-L-sarcolysyl-p-L-fluorophenylalanine ethyl ester hydrochloride, reference compound]
Tumour cell survival index % Solid [2]: 86.0% | IC50 (CEM/S): 0.94 µM | IC50 (ACHN): 4.59 µM | IC50 [3]: 3.35 µM | IC50 (H69): 4.59 µM | IC50 (CEM/R): 0.63 µM | IC50 (8226S): 5.11 µM | Tumour cell survival index (%) Hematological tumours [4]: 7% | Median response at 4.0 µM >50% reduction in tumour cell survival (Corpus cancer): No | Median response at 4.0 µM >50% reduction in tumour cell survival (Breast cancer): No | Median response at 4.0 µM >50% reduction in tumour cell survival (Prostate cancer): No | Number of samples EDR ([5]; Extreme drug resistance): 1 | Number of samples (%) EDR ([5]; Extreme drug resistance, percent of samples): 5% | Number of samples IDR ([5]; Intermediate drug resistance): 4 | Number of samples (%) IDR ([5]; Intermediate drug resistance, percent of samples): 21% | Number of samples LDR ([5]; Low drug resistance): 14 | Number of samples (%) LDR ([5]; Low drug resistance, percent of samples): 74% | IC50 (8226Dox40): 5.43 µM | IC50s (comparison) [6]: more active than melphalan | Tumour cell survival index % Hematological [7]: 34.7% | Tumour cell survival index (%) Solid tumours (Solid tumours (PHTC)): 68.9% | cytotoxicity (RPMI 8322 melanoma cells): more toxic to RPMI 8322 melanoma cells than any of the other peptides | IC50 (U937vcr): 1.79 µM | IC50 (8226LR5): 7.4 µM | IC50 (U937gtb): 1.78 µM | Median response at 4.0 µM >50% reduction in tumour cell survival (NSC Lung cancer): No | Median response at 4.0 µM >50% reduction in tumour cell survival (Adeno-carcinoma): No | Median response at 4.0 µM >50% reduction in tumour cell survival (Ovarian carcinoma): No | Tumour cell survival index (%) Total [8]: 46.1% | IC50 (H69AR): 4.27 µM

CCOC(=O)[C@H](Cc1ccc(O)cc1)NC(=O)[C@H](Cc1ccc(N(CCCl)CCCl)cc1)NC(C)=O [astyron, N-acetyl-L-melphalanyl-L-tyrosine ethyl ester]
sarcoma 45 growth (sarcoma 45): inhibited sarcoma 45 growth

Reference: patent EP1290011B1 (Oncopeptides AB, priority 2000, dated 2001)
